Source: US10226433B2, “Use of cannabinoids in the treatment of degenerative skeletal muscle diseases” (GW Research Limited, priority 2014, dated 2019)

What was measured:
Mouse C2C12 myoblasts [1] = assay: C2C12 myoblast differentiation, qPCR of Myog and Tnnt-1 mRNA; type: cell-based; details: 24 h in DM, C2C12 cells, vs vehicle
Procedure: (§1) Mouse C2C12 myoblasts were propagated in a growth medium (GM) composed of Dulbecco's modified Eagle's medium supplemented with 10% fetal bovine serum (FBS), 50 U/ml penicillin plus 50 μg/ml streptomycin, and 1% L-glutamine (Invitrogen, Milan, Italy), in a humidified atmosphere of 95% air/5% CO2 at 37° C.
(§2) Exposure of proliferating C2C12 cells for 24 to 72 h to a lower (from 10% to 0.1%) FBS concentration, plus the addition of 5 μg/ml insulin and 5 μg/ml transferrin (differentiation medium, DM), induced their differentiation into myotubes.
(§3) Total RNA was isolated from […] by use of the TRI-Reagent (Life Technology, Milan, Italy), reacted with DNase-I (1 U/μl; Sigma-Aldrich) following the manufacturer's instructions, and then quantified by spectrophotometric analysis.
[…]. Final preparation of RNA was considered DNA- and protein-free if the ratio between readings at 260/280 nm was >1.7. The purified mRNA was reverse-transcribed by use of reverse transcriptase (enzyme-VILO) (Life Technology, Milan, Italy). Quantitative real-time PCR was carried out in CFX384 real time
(§4) PCR detection system (Bio-Rad, Segrate MI, Italy) with specific primers by the use of SYBR Green detection (Bio-Rad, Segrate MI, Italy). Samples were amplified simultaneously in quadruplicate in one-assay run with a non-template control blank for each primer pair to control for contamination or primer-dimers formation, and the ct (cycle threshold) value for each experimental group was determined.
(§5) The housekeeping genes (the ribosomal protein S16) has been used as an internal control to normalize the ct values, using the 2-dCt formula; differences in mRNA content between groups were as expressed as 2-ddct, as previously described (Iannotti et al. 2013)
In order to gain information about the potential effects of phytocannabinoids on myoblast differentiation, C2C12 cells were induced to differentiate for 24-48 h in DM in the presence or absence of various phytocannabinoids.
qPCR analysis was then utilized to evaluated the expression level of the canonical developmentally regulated skeletal markers Myog and Tnnt-1.

Mouse C2C12 myoblasts [2] = assay: Western blot analysis of MyHC protein in differentiating C2C12 cells; type: cell-based; details: 72 h exposure to DM+1 μM CBD, relative to control conditions
Procedure: as §1, §2
Cells were washed two times in cold PBS and lysed with lysis solution (150 mM NaCl, 1 mM EDTA, pH 7.4, 10 mM Tris-HCl, pH 8, 1% SDS, and protease inhibitors). Lysates (50-60 ug) were boiled 5 min in Laemmli SDS loading buffer and separated by 8% SDS-polyacrylamide gel electrophoresis. Filters were incubated overnight at 4° C. with a mouse anti-MyHC (dilution, 1:1000; Millipore).
An anti-tubulin antibody (dilution, 1:5000; Sigma-Aldrich) was used to check for equal protein loading. Reactive bands were detected by chemiluminescence (ECL-plus; GE Healthcare). Images were analysed on a ChemiDoc station with Quantity one software (Bio-Rad, Segrate, Italy).
The effect of CBD 1 μM on myotube formation was confirmed by western blot analysis.

Mouse C2C12 myoblasts [3] = assay: Short-term (10 min) CBD exposure of differentiating C2C12 myoblasts, qPCR; type: cell-based; details: DM+1 μM for 10 min
Procedure: as §1, §2, §3, §4, §5
The potential effect of short term CBD exposure at 1 μM on differentiating C2C12 cells was also tested.
The day after plating, C2C12 myoblasts were exposed to DM in presence or not of 1 μM CBD for 10 min.

[4] = system: Primary human satellite cells (SC); assay: Human satellite cell differentiation, qPCR of Myog, Tnnt-1 and MyHC mRNA; type: cell-based; details: 5 days of SC exposure to DM, vs vehicle
Procedure: (§6) Primary human satellite cells (SC) were purchased from Innoprot Inc (Bizkaia-Spain) and propagated in a growth medium (GM) which contains essential and non-essential amino acids, vitamins, organic and inorganic compounds, hormones, growth factors, trace minerals and a low concentration of fetal bovine serum (5%) (Innoprot lnc/Bizkaia-Spain) in a humidified atmosphere of 95% air/5% CO2 at 37° C.
(§7) Exposure of proliferating satellite cells 4-5 days to a lower (from 10% to 0.1%) FBS concentration, plus the addition of 5 μg/ml insulin and 5 μg/ml transferrin (differentiation medium, DM), induced their differentiation into myotubes.
As described in Example 1
To further investigate the effects of the cannabinoids CBD, CBDV and THCV on human skeletal muscle precursor cell differentiation qPCR analysis was used.
In particular, skeletal muscle cell differentiation was quantified by measuring the transcript levels of myogenin (Myog), Troponin (Tnnt-1) and Myosin Heavy Chain (MyHC). All of which are widely considered muscle-specific markers, required for myotube formation.

[5] = system: Primary human satellite cells (SC); assay: Phase contrast microscopy of differentiating primary human satellite cells; type: cell-based; details: for Morphology of differentiating SC with respect to vehicle (DMSO) control: after 4 and 5 days of exposure to DM
Procedure: as §6, §7
Differentiating primary human satellite cells were also examined in phase contrast mode by means of conventional light microscopy. […] In particular, after 5 days of incubation in the presence of phytocannabinoids, the cells appeared more fused and with mature myotubes being larger in size.

[6] = Body mass of mdx mice over 16 weeks; type: in vivo, mouse; details: for Total body mass / Total body mass, difference to vehicle: at week 15, CBD 120 mg/kg/day, DFZ 1.2 mg/kg/day
Procedure: (§8) Mdx mice were bred and housed according to Home Office regulations. At 6 weeks of age groups of female mdx mice (control n=18, deflazcort n=18, CBD n=19) were acclimatised to 3.5% Kolliphor/water (v/v) in drinking water.
(§9) Control groups were maintained on 3.5% Kolliphor for the duration of the study. Deflazacort (DFZ) groups were maintained on 3.5% Kolliphor for 2 weeks and then maintained on 1.2 mg/kg/day DFZ in 3.5% Kolliphor for 16 weeks (n=8).
(§10) CBD groups were acclimatised to 3.5% Kolliphor for 7 days. On day 7, 3.5% Kolliphor was supplemented with CBD at 75 mg/kg/day for 3 days; CBD was then increased to 120 mg/kg/day for 16 weeks (n=8).
Mice and bottles were weighed twice weekly to monitor body mass and consumption. Mice are housed in groups, therefore average consumption is calculated.

Mdx mice [7] = assay: Real time PCR of gastrocnemius muscle of mdx mice at week 4; type: in vivo, mouse
Procedure: as §8, §9, §10
Gastrocnemius muscle was recovered at week 4 and relative gene expressions were determined.
RNA was extracted from cells following treatment with CBD. Control RNA was extracted from the control group (RNeasy kit, Qiagen). 2 μg of RNA from each sample was reversed transcribed using oligo dT primers (rt nanoscript 2, Primer Design).
Stable endogenous control genes (Pak1lip1, Htatfs1) were identified using the mouse GeNorm Kit qbase+software (Primer Design).
Real time PCR was conducted using SYBR green (Life Technologies) on an AB Biosystems Thermocycler. All real time PCR experiments were conducted with the following reaction conditions. Initial 95° C. 10 mins, followed by 40 cycles of 95° C. for 15 secs, 60° C. for 1 min, followed by melt curve analysis.
Relative levels of gene expression were determined using the standard curve method and are expressed relative to the average of the endogenous controls.

Mdx mice [8] = assay: CD8 positive cells in spleens of mdx mice at week 4; type: in vivo, mouse; details: spleen
Procedure: as §8, §9, §10
Spleens were recovered at week 4 and CD8 positive cells were analysed.

| SMILES | Myogenin (Myog) mRNA expression level (Mouse C2C12 myoblasts [1]; 1 μM) | Troponin (Tnnt-1) mRNA expression level (Mouse C2C12 myoblasts [1]; 1 μM) | Total body mass [6] [g] | Total body mass, difference to vehicle [6] [%] | Myogenin (Myog) mRNA expression level (Mouse C2C12 myoblasts [1]; 3 μM) | Troponin (Tnnt-1) mRNA expression level (Mouse C2C12 myoblasts [1]; 3 μM) | MyHC transcript level ([4]; 3 μM) | Myog transcript level ([4]; 3 μM) | Tnnt-1 transcript level ([4]; 3 μM) | Morphology of differentiating SC with respect to vehicle (DMSO) control ([5]; 3 μM) | other results |
| --- | --- | --- | --- | --- | --- | --- | --- | --- | --- | --- | --- |
| C=C(C)[C@@H]1CCC(C)=C[C@H]1c1c(O)cc(CCCCC)cc1O [CBD, Cannabidiol] | significant increase | significant increase | 29.42 | 5.6 |  |  |  |  |  |  | Myosin Heavy Chain (MyHC) protein expression (Mouse C2C12 myoblasts [2]): significantly increased; Myog transcript level (Mouse C2C12 myoblasts [3]; then DM without drug for 3 h): significantly higher; Tnnt-1 transcript level (Mouse C2C12 myoblasts [3]; then DM without drug for 3 h): significantly higher; Myog transcript level (Mouse C2C12 myoblasts [3]; then DM without drug for 24 h): significantly higher; Tnnt-1 transcript level (Mouse C2C12 myoblasts [3]; then DM without drug for 24 h): significantly higher; MyHC transcript level ([4]; 1 μM): significantly increased; Myog transcript level ([4]; 1 μM): significantly increased; Tnnt-1 transcript level ([4]; 1 μM): significantly increased; Morphology of differentiating SC with respect to vehicle (DMSO) control ([5]; 1 μM): clear morphological differences; Total body mass compared with vehicle group ([6]; up to week 4, CBD 120 mg/kg/day in drinking water): did not differ; Mitochondrially encoded NADH dehydrogenase 2 (MT-ND2) relative gene expression, upregulation (Mdx mice [7]; n=4): 253.2%; PGC1a relative gene expression, upregulation (Mdx mice [7]; n=9): 125.8%; Sirtuin-1 (Sirt1) relative gene expression, upregulation (Mdx mice [7]; n=9): 84.9%; Total percentage CD8 population, difference to vehicle (Mdx mice [8]; n=9): 19.7%; Total percentage CD8 population (Mdx mice [8]; n=9, vehicle 10.9%): 8.7% |
| C=C(C)[C@@H]1CCC(C)=C[C@H]1c1c(O)cc(CCCCC)c(C(=O)O)c1O [CBDA, Cannabidiolic acid] | significantly reduced | significantly reduced |  |  | significantly reduced | significantly reduced |  |  |  |  |  |
| C=C(C)[C@@H]1CCC(C)=C[C@H]1c1c(O)cc(CCC)cc1O [CBDV, Cannabidivarin] | significant increase | significant increase |  |  | significant increase | significant increase | significantly increased | significantly increased | significantly increased | clear morphological differences |  |
| CCCCCc1cc(O)c(C/C=C(\C)CCC=C(C)C)c(O)c1 [CBG, Cannabigerol] |  |  |  |  | significantly reduced | significantly reduced |  |  |  |  |  |
| CCCc1cc(O)c2c(c1)OC(C)(C)[C@@H]1CCC(C)=C[C@@H]21 [THCV, Tetrahydrocannabivarin] | did not produced significant effects | did not produced significant effects |  |  | did not produced significant effects | did not produced significant effects | significantly increased | significantly increased | significantly increased | clear morphological differences | Cell fusion and size of mature myotubes ([5]; after 5 days of incubation, CBD 1 μM, CBDV and THCV 3 μM): more appreciable |
| CC(=O)OCC(=O)[C@@]12N=C(C)O[C@@H]1C[C@H]1[C@@H]3CCC4=CC(=O)C=C[C@]4(C)[C@H]3[C@@H](O)C[C@@]12C [deflazacort, Deflazacort, reference compound] |  |  | 26.26 | 15.8 |  |  |  |  |  |  | Total body mass, lighter than vehicle and CBD groups ([6]; up to week 4, deflazacort 1.2 mg/kg/day in drinking water): 8.9%; Effect on total percentage CD8 population (Mdx mice [8]): unaffected |
